Source: patent US9156801B2, “2-substituted oleanolic acid derivative, method preparing for same, and application thereof” (HANGZHOU BENSHENG PHARMACEUTICAL CO., LTD., priority 2011, dated 2015)
Converted amounts (≈) assume the structure as drawn.

How the values were obtained:
NB4 cell line = assay: leukemia cell growth inhibition, MTT; assay type: cell-based; details: Homo sapiens, NB-4; for inhibition at 16 µg/mL: NB4, 16 μg/mL compound, 72 h, read-out: IR (cell proliferation inhibition rate); for IC50: NB4, 72 h
Procedure, shortened: (§1)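 Proliferation inhibition was read by MTT after 72 h of compound exposure (37 °C, 5% CO2), untreated wells defining 0%. Each well held 6000 cells in 1640 medium plus 10% fetal bovine serum, with test compounds at varied concentrations.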

Kasumi-1 cell line = assay: leukemia cell growth inhibition, MTT; assay type: cell-based; details: Homo sapiens; for inhibition at 16 µg/mL: Kasumi-1, 16 μg/mL compound, 72 h, read-out: IR (cell proliferation inhibition rate); for IC50: Kasumi-1, 72 h
Procedure, shortened: as §1

K562/adr cell line = assay: leukemia cell growth inhibition, MTT; assay type: cell-based; details: Homo sapiens, 72 h; for IC50: K562/Adr; for inhibition at 16 µg/mL: K562/adr, 16 μg/mL compound, read-out: IR (cell proliferation inhibition rate)
Procedure, shortened: as §1

Jurkat cell line = assay: leukemia cell growth inhibition, MTT; assay type: cell-based; details: Homo sapiens, 72 h; for inhibition at 16 µg/mL: 16 μg/mL compound, read-out: IR (cell proliferation inhibition rate)
Procedure, shortened: as §1

H9 cell line = assay: leukemia cell growth inhibition, MTT; assay type: cell-based; details: Homo sapiens; for IC50: H9, 72 h; for inhibition at 16 µg/mL: H9, 16 μg/mL compound, 72 h, read-out: IR (cell proliferation inhibition rate)
Procedure, shortened: as §1

Hep G2 cell line = assay: solid tumor cell growth inhibition, MTT; assay type: cell-based, human; details: Homo sapiens; for inhibition at 16 µg/mL: HepG2, 72 h, Hep G2, 16 μg/mL compound, 72 h, read-out: IR (cell proliferation inhibition rate); for IC50: HepG2, Hep G2, 72 h
Procedure, shortened: (§2)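 Proliferation inhibition is calculated relative to untreated cells taken as 0%, using MTT to estimate living cells. Cultures of 4000 cells per well in DMEM high glucose/10% FBS receive compound 24 h after seeding and are then incubated 72 h at 37° C, 5% CO2.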

RPMI8226 cell line = assay: multiple myeloma cell growth inhibition, MTT; assay type: cell-based; details: Homo sapiens, RPMI-8226; for inhibition at 16 µg/mL: RPMI8226, 16 μg/mL compound, 72 h, read-out: IR (cell proliferation inhibition rate); for IC50: RPMI8226, 72 h
Procedure, shortened: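 Viability was measured by MTT after a 72 h compound exposure (37° C, 5% CO2) of RPMI8226 myeloma cells seeded at 6000 per well in 1640 medium with 10% fetal bovine serum. Growth inhibition was expressed relative to untreated cells, taken as 0%.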

Hep-2 cell line = assay: solid tumor cell growth inhibition, MTT; assay type: cell-based; details: Homo sapiens; for IC50: HEp-2, 72 h; for inhibition at 16 µg/mL: Hep-2, 16 μg/mL compound, 72 h, read-out: IR (cell proliferation inhibition rate)
Procedure, shortened: as §2

Hela cell line = assay: solid tumor cell growth inhibition, MTT; assay type: cell-based; details: Homo sapiens, 72 h; for IC50: HeLa; for inhibition at 16 µg/mL: Hela, 16 μg/mL compound, read-out: IR (cell proliferation inhibition rate)
Procedure, shortened: as §2

PANC-1 cell line = assay: solid tumor cell growth inhibition, MTT; assay type: cell-based; details: Homo sapiens; for IC50: PANC-1, 72 h; for inhibition at 16 µg/mL: PANC-1, 16 μg/mL compound, 72 h, read-out: IR (cell proliferation inhibition rate)
Procedure, shortened: as §2

CaES-17 cell line = assay: solid tumor cell growth inhibition, MTT; assay type: cell-based; details: Homo sapiens, CaEs17; for inhibition at 16 µg/mL: CaES-17, 16 μg/mL compound, 72 h, read-out: IR (cell proliferation inhibition rate); for IC50: CaES-17, 72 h
Procedure, shortened: as §2

PC-3 cell line = assay: solid tumor cell growth inhibition, MTT; assay type: cell-based; details: Homo sapiens; for IC50: PC-3, 72 h; for inhibition at 16 µg/mL: PC-3, 16 μg/mL compound, 72 h, read-out: IR (cell proliferation inhibition rate)
Procedure, shortened: as §2

A549 cell line = assay: solid tumor cell growth inhibition, MTT; assay type: cell-based; details: Homo sapiens; for IC50: A549, 72 h; for inhibition at 16 µg/mL: A549, 16 μg/mL compound, 72 h, read-out: IR (cell proliferation inhibition rate)
Procedure, shortened: as §2

Becap37 cell line = assay: solid tumor cell growth inhibition, MTT; assay type: cell-based; details: Homo sapiens; for inhibition at 16 µg/mL: Becap37, 16 μg/mL compound, 72 h, read-out: IR (cell proliferation inhibition rate); for IC50: Becap37, 72 h
Procedure, shortened: as §2

CNE cell line = assay: solid tumor cell growth inhibition, MTT; assay type: cell-based; details: Homo sapiens, 72 h; for inhibition at 16 µg/mL: 16 μg/mL compound, read-out: IR (cell proliferation inhibition rate)
Procedure, shortened: as §2

MGC 803 cell line = assay: solid tumor cell growth inhibition, MTT; assay type: cell-based; details: Homo sapiens; for inhibition at 16 µg/mL: MGC 803, 16 μg/mL compound, 72 h, read-out: IR (cell proliferation inhibition rate); for IC50: MGC 803, 72 h
Procedure, shortened: as §2

MG-63 cell line = assay: solid tumor cell growth inhibition, MTT; assay type: cell-based; details: Homo sapiens; for IC50: MG-63, 72 h; for inhibition at 16 µg/mL: MG-63, 16 μg/mL compound, 72 h, read-out: IR (cell proliferation inhibition rate)
Procedure, shortened: as §2

U87 MG cell line = assay: solid tumor cell growth inhibition, MTT; assay type: cell-based; details: Homo sapiens, U-87 MG, 72 h; for inhibition at 16 µg/mL: 16 μg/mL compound, read-out: IR (cell proliferation inhibition rate)
Procedure, shortened: as §2

RKO cell line = assay: solid tumor cell growth inhibition, MTT; assay type: cell-based; details: Homo sapiens, 72 h; for inhibition at 16 µg/mL: 16 μg/mL compound, read-out: IR (cell proliferation inhibition rate)
Procedure, shortened: as §2

SK-OV-3 cell line = assay: solid tumor cell growth inhibition, MTT; assay type: cell-based; details: Homo sapiens; for IC50: SK-OV-3, 72 h; for inhibition at 16 µg/mL: SK-OV-3, 16 μg/mL compound, 72 h, read-out: IR (cell proliferation inhibition rate)
Procedure, shortened: as §2

Structure (SMILES) | inhibition at 16 µg/mL (NB4 cell line) | IC50 (NB4 cell line) | inhibition at 16 µg/mL (Kasumi-1 cell line) | IC50 (Kasumi-1 cell line) | IC50 (K562/adr cell line) | inhibition at 16 µg/mL (K562/adr cell line) | inhibition at 16 µg/mL (Jurkat cell line) | IC50 (Jurkat cell line) | IC50 (H9 cell line) | inhibition at 16 µg/mL (H9 cell line) | inhibition at 16 µg/mL (Hep G2 cell line) | IC50 (Hep G2 cell line) | inhibition at 16 µg/mL (RPMI8226 cell line) | IC50 (RPMI8226 cell line) | IC50 (Hep-2 cell line) | inhibition at 16 µg/mL (Hep-2 cell line) | IC50 (Hela cell line) | inhibition at 16 µg/mL (Hela cell line) | IC50 (PANC-1 cell line) | inhibition at 16 µg/mL (PANC-1 cell line) | further results
COCCCNC(=O)C1C[C@]2(C)[C@H]3CC=C4[C@@H]5CC(C)(C)CC[C@]5(C(=O)OC)CC[C@@]4(C)[C@]3(C)CC[C@H]2C(C)(C)C1=O (stereo partly drawn) [BS-OA-052] | 46.7% | 16 µg/mL (≈ 27.4 µM) | 19% | > 16 µg/mL | 12.3 µg/mL (≈ 21 µM) | 64% | -5% | > 16 µg/mL | > 16 µg/mL | 38% | 10% | > 16 µg/mL | 25.2% | > 16 µg/mL | > 16 µg/mL | -11.3% | > 16 µg/mL | 25.6% | > 16 µg/mL | 8.4% | inhibition at 16 µg/mL (CaES-17 cell line): -8%; IC50 (CaES-17 cell line): > 16 µg/mL; IC50 (PC-3 cell line): > 16 µg/mL; inhibition at 16 µg/mL (PC-3 cell line): 25.4%; IC50 (A549 cell line): > 16 µg/mL; inhibition at 16 µg/mL (A549 cell line): 3.1%; inhibition at 16 µg/mL (Becap37 cell line): -12%; IC50 (Becap37 cell line): > 16 µg/mL; inhibition at 16 µg/mL (CNE cell line): 9.9%; IC50 (CNE cell line): > 16 µg/mL; inhibition at 16 µg/mL (MGC 803 cell line): -12.7%; IC50 (MGC 803 cell line): > 16 µg/mL; IC50 (MG-63 cell line): > 16 µg/mL; inhibition at 16 µg/mL (MG-63 cell line): -33.5%; inhibition at 16 µg/mL (U87 MG cell line): 10.9%; IC50 (U87 MG cell line): > 16 µg/mL; inhibition at 16 µg/mL (RKO cell line): -48.6%; IC50 (RKO cell line): > 16 µg/mL; IC50 (SK-OV-3 cell line): > 16 µg/mL; inhibition at 16 µg/mL (SK-OV-3 cell line): 29.5%
CCOCCNC(=O)C1C[C@@]2(C)C(CC[C@]3(C)C2CC=C2C4CC(C)(C)CC[C@]4(C(=O)OC)CC[C@]23C)C(C)(C)C1=O (stereo partly drawn) [BS-OA-053] | 71.3% | 10.7 µg/mL (≈ 18.3 µM) | 23.2% | > 16 µg/mL | 10.8 µg/mL (≈ 18.4 µM) | 60.9% | 13% | > 16 µg/mL | 15.5 µg/mL (≈ 26.6 µM) | 54.6% | 6.8% | > 16 µg/mL | 29.5% | > 16 µg/mL | > 16 µg/mL | -10% | > 16 µg/mL | 27.5% | > 16 µg/mL | -3.3% | inhibition at 16 µg/mL (CaES-17 cell line): -13.1%; IC50 (CaES-17 cell line): > 16 µg/mL; IC50 (PC-3 cell line): > 16 µg/mL; inhibition at 16 µg/mL (PC-3 cell line): 38.8%; IC50 (A549 cell line): > 16 µg/mL; inhibition at 16 µg/mL (A549 cell line): 2%; inhibition at 16 µg/mL (Becap37 cell line): -10.2%; IC50 (Becap37 cell line): > 16 µg/mL; inhibition at 16 µg/mL (CNE cell line): 9.9%; IC50 (CNE cell line): > 16 µg/mL; inhibition at 16 µg/mL (MGC 803 cell line): 7.8%; IC50 (MGC 803 cell line): > 16 µg/mL; IC50 (MG-63 cell line): > 16 µg/mL; inhibition at 16 µg/mL (MG-63 cell line): -32.5%; inhibition at 16 µg/mL (U87 MG cell line): 20.1%; IC50 (U87 MG cell line): > 16 µg/mL; inhibition at 16 µg/mL (RKO cell line): -55.6%; IC50 (RKO cell line): > 16 µg/mL; IC50 (SK-OV-3 cell line): > 16 µg/mL; inhibition at 16 µg/mL (SK-OV-3 cell line): 22.7%
COC(=O)[C@]12CCC(C)(C)C[C@H]1C1=CC[C@@H]3[C@@]4(C)CC(C(=O)NCCN5CCOCC5)C(=O)C(C)(C)[C@@H]4CC[C@@]3(C)[C@]1(C)CC2 (stereo partly drawn) [BS-OA-059] | 86.7% | 9.74 µg/mL (≈ 15.6 µM) | 48.7% | 16 µg/mL (≈ 25.6 µM) | 8.87 µg/mL (≈ 14.2 µM) | 80.5% | 23.8% | > 16 µg/mL | 12.7 µg/mL (≈ 20.4 µM) | 67.7% | 0.6% | > 16 µg/mL | 96.6% | 7.18 µg/mL (≈ 11.5 µM) | > 16 µg/mL | 0% | 16 µg/mL (≈ 25.6 µM) | 51.8% | > 16 µg/mL | 10.4% | inhibition at 16 µg/mL (CaES-17 cell line): 34%; IC50 (CaES-17 cell line): > 16 µg/mL; IC50 (PC-3 cell line): > 16 µg/mL; inhibition at 16 µg/mL (PC-3 cell line): 34.1%; IC50 (A549 cell line): > 16 µg/mL; inhibition at 16 µg/mL (A549 cell line): 11.8%; inhibition at 16 µg/mL (Becap37 cell line): 4.7%; IC50 (Becap37 cell line): > 16 µg/mL; inhibition at 16 µg/mL (CNE cell line): 20.6%; IC50 (CNE cell line): > 16 µg/mL; inhibition at 16 µg/mL (MGC 803 cell line): -7.4%; IC50 (MGC 803 cell line): > 16 µg/mL; IC50 (MG-63 cell line): > 16 µg/mL; inhibition at 16 µg/mL (MG-63 cell line): 27%; inhibition at 16 µg/mL (U87 MG cell line): 30.6%; IC50 (U87 MG cell line): > 16 µg/mL; inhibition at 16 µg/mL (RKO cell line): 1.8%; IC50 (RKO cell line): > 16 µg/mL; IC50 (SK-OV-3 cell line): > 16 µg/mL; inhibition at 16 µg/mL (SK-OV-3 cell line): 35.2%
